Data on 4 molecules can be found in patent publication US8609135B2, “Anthracycline derivatives” (Nuclisome AB, priority 2004, dated 2013).

For data set [1] the following is noted: cited from earlier work.
A short description of data set [2]: Drug retention in liposomes. The following applies: incubated in medium at 37° C. for 24 h. In kind it is physicochemical. How it is done:
Liposomes were composed of 1,2-distearoyl-sn-glycero-3-phosphatidyl-choline (DSPC), cholesterol, 1,2-distearoyl-sn-glycero-3-phosphatidyl-ethanolamine-N-[methoxy (poly-ethyleneglycol)-2000 (DSPE-PEG2000) at a molar ratio of 57:40:3. Liposomes were prepared by the lipid film hydration method. Briefly, cholesterol and lipids were dissolved in chloroform. The solvent was evaporated under a gentle stream of nitrogen gas and the lipid film was dried under vacuum overnight. The lipid film was hydrated with 300 mM citrate buffer (pH 4) for 1 h with intermediate vortex mixing at a lipid concentration of 20 mM at a temperature of 60° C. Liposomes were repetitively frozen in liquid nitrogen and thawed at a temperature of 60° C. five times before extrusion. Liposomes were extruded ten times through two stacked polycarbonate membranes filters (Whatman Inc. Nucleopore, Newton, Mass.) with a pore size of 100 nm at a room temperature using an Avanti Mini-extruder (Avanti Polar Lipids Inc., Alabaster, Ala.). […]
Liposomes were incubated at temperatures of 37° C. or 60° C. […] The fluorescence intensity of samples was determined at an excitation wavelength of 468 nm and an emission wavelength of 589 nm. The percentage of encapsulated drug after incubation was determined relative to the amount of encapsulated drug before incubation.

Data set [3] has as its system thyroid cancer, lymphomas, bladder carcinomas, sarcomas, ovarian carcinomas, leukemias. The settings on record: cited from earlier work.
In data set [4] the test system is calf thymus DNA (CT DNA). Put plainly: Fluorescence titration, binding to calf thymus DNA. The settings on record: room temperature, BPES buffer pH 7, n=3. How it is done: Type 1 calf thymus DNA sodium salt (Sigma-Aldrich Co., St Louis, M.O., USA) was hydrated in BPES buffer (6 mM Na2HPO4, 2 mM NaH2PO4, 1 mM EDTA, 185 mM NaCl, pH 7) at a concentration of approximately 2 mg/ml and sonicated at approximately 8 μA in a MSE Soniprep 150 ultrasonic disintegrator (Integrated Services TCP Inc., Palisades Park, N.J., USA) for 30 min in a water bath on ice. The sample was then dialyzed for 48 h against BPES using Slide-A-Lyzer® dialysis cassettes (10,000 MWCO) (Pierce, Rockford, Ill., USA). The final DNA concentration was determined spectrophotometrically on a HP8453 spectrophotometer (Hewlett-Packard Company Houston Tex., USA) at a wavelength of 260 nm using an extinction coefficient of 12,824 M (bp)^−1 cm^−1.
Fluorescence titration experiments were performed on a SPEX 1680 Fluorolog spectrofluorometer (SPEX Industries Inc., Edison, N.J., USA) at room temperature with λex=480 nm (slid width 2.5 mm) and λem=592 nm (slid width 2.5 mm). The initial free drug concentration was 1 μM. […] The concentration of bound drug was calculated by the difference between CT and Cf. Binding constants (Ki) and exclusion parameters (n) were calculated by plotting r/Cf versus r (Scatchard plot), where r is the number of moles of bound drug per mol DNA base pairs. Theoretical curves for the neighbor exclusion model were calculated by using the algorithm: r/Cf=Ki(1−nr)[(1−nr)/[1−(n−1)r]]^n−1 (J. Mol. Biol. 86, 469-489, 1974)
where Ki (M^−1) is the intrinsic binding constant and n (base pairs) is the exclusion parameter. The parameters Ki and n were varied to generate theoretical curves that closest fitted the experimental data.

For the next data set, the system named is SKBR-3 cells. Briefly: Growth curves of SKBR-3 cells (toxicity). It counts as cell-based, human. The following applies: SKBR-3 cell monolayers, 0.5 ng/ml, 2.5 h incubation. The procedure: Growth curves^125I-Compound 1, Compound 1, doxorubicin, or daunorubicin were dissolved in culture media to a concentration of 0.5 ng/ml. The specific activity of ^125I-Compound 1 was 100 kBq/ng. SKBR-3 cells were incubated with drug in 60 mm plastic Petri dishes as triplicates, for 2.5 h. Control-cells were incubated with ordinary culture medium. After incubation, the medium was removed from all dishes and cells were washed six times with serum-free medium. Cells were detached from dishes by adding 0.5 ml of trypsin/EDTA for 10 min at a temperature of 37° C. After re-suspension in 1 ml of culture media cells were counted using a coulter counter (Z2 Coulter Counter, Beckman Coulter) and sub-cultivated to 10^5 cells to generate growth curves. Growth curves were corrected for loss of cells at each sub-cultivation.

The subject of data set [5] is calf thymus DNA (CT DNA). The following applies: literature values; cited from earlier work.
In data set [6] the test system is human tumour A431 cells (squamous carcinoma). Put plainly: Binding of 125I-Compound 1 to permealised A431 cells (gamma counter, fluorescence microscopy). In kind it is cell-based. How it is done: Human cultured tumour cells […] were grown as monolayer cultures using Ham's F-10 medium (Biochrom AG, Berlin, Germany) containing 10% fetal calf serum, glutamine (2 mM), streptomycin (100 μg/ml), and penicillin (100 IU/ml) at a temperature of 37° C. in a humidified 5% CO2 incubator.
Cultured human tumour A431 cells (squamous carcinoma) were grown on glass slides, cooled to a temperature of 4° C., and washed with phosphate buffer. Cells were inactivated in methanol for 15 minutes at a temperature of −20° C. and then quickly washed at a temperature of 4° C. with phosphate buffer. Cells were thereafter permealised by acetone treatment for 10 seconds at a temperature of 4° C. After drying cells were incubated with ^125I-Compound 1 at room temperature for one hour, washed, and analyzed for radioactivity using a gamma counter (1480 Wallac Wizard, Perkin Elmer, Wellesley, Mass., USA). In addition, cells were inspected by fluorescence microscopy.

Data set [7] can be described thus: Dissolution of drug in 10% (wt/vol) sucrose solution. In kind it is physicochemical. The following applies: 0.5 mM in 10% (wt/vol) sucrose solution. How it is done:
Compound 1 (3′-N-(4-hydroxy-3-iodobenzyl)-13-(R/S)-dihydrodaunorubicin, stereoisomeric mixture) and Compound 2 (3′-N-(4-Hydroxy-3-iodobenzyl)daunorubicin), structures are shown below, or doxorubicin (Sigma Aldrich, St. Louis, Mo., USA) were encapsulated into liposomes using the pH-gradient driven loading protocol by Mayer et al. The pH gradient across the liposome membrane was generated by exchanging the extravesicular 300 mM citrate buffer (pH 4) with 20 mM N-[2-hydroxyethyl]piperazine-N′-[2-ethanesulfonic acid] (HEPES) buffered 150 mM saline (HBS) (pH 7.5) on a Sephadex G-50 column. Doxorubicin was dissolved in HBS at a concentration of 1 mM. Compound 1 was dissolved at a concentration of 0.5 mM in 10% (wt/vol) sucrose solution. […] A preheated drug solution was added to the liposomes at a 0.2 drug-to-lipid molar ratio. The mixture was incubated for 15 min at a temperature of 60° C. with intermittent mixing using a Vortex-apparatus resulting in 100% drug encapsulation.

Where two headings read alike, the source gives them in different places.

For `COc1cccc2c1C(=O)c1c(O)c3c(c(O)c1C2=O)C[C@@](O)(C(=O)CO)C[C@@H]3O[C@H]1C[C@H](N)[C@H](O)[C@H](C)O1` [doxorubicin, Doxorubicin], the “cardiac toxicity up to congestive heart failure, share of patients” value in data set [1] (patients) was 1-10%. In addition, the “side effect alopecia, share of patients” value in data set [1] (patients) is 100%. The “side effect nausea and vomiting, share of patients” value in data set [1] (patients) is 20-55%. Besides, the “acute dose-limiting toxicity: bone-marrow suppression, leukopenia, and stomatitis, share of treated patients” value in data set [1] (treated patients) is on record as 80%. The “drug remaining encapsulated in liposomes” value in data set [2] is given as “Approximately 80%”. Besides, the overall response rate in data set [3] (bladder carcinomas) was 33%; in data set [3] (leukemias), 24%; in data set [3] (lymphomas), 41%; in data set [3] (ovarian carcinomas), 25%; in data set [3] (sarcomas) it was 26%; in data set [3] (thyroid cancer), 45%. The “n (exclusion parameter)” value in the data set with calf thymus DNA (CT DNA) [4] is given as 3.9 base pairs. For the same molecule, in the data set with SKBR-3 cells, the “cytotoxic effect (growth curves)” value is listed as “Neither of the latter compounds had any significant cytotoxic effect”. Moreover, the “n (exclusion parameter), literature value” with calf thymus DNA (CT DNA) [5] is given as 3.8 base pairs.

`COc1cccc2c1C(=O)c1c(O)c3c(c(O)c1C2=O)C[C@@](O)(C(C)=O)C[C@@H]3O[C@H]1C[C@H](N)[C@H](O)[C@H](C)O1` [daunorubicin, Daunorubicin]: the “n (exclusion parameter)” value with calf thymus DNA (CT DNA) [4] was 3.6 base pairs. In addition, the “cytotoxic effect (growth curves)” value in the data set with SKBR-3 cells is “Neither of the latter compounds had any significant cytotoxic effect”. Besides, the “n (exclusion parameter), literature value” in the data set on calf thymus DNA (CT DNA) [5] is listed as 3.5 base pairs.

With `COc1cccc2c1C(=O)c1c(O)c3c(c(O)c1C2=O)C[C@@](O)(C(C)O)C[C@@H]3O[C@H]1C[C@@H](NCc2ccc(O)c(I)c2)[C@H](O)C(C)O1` (mixture of isomers) [Compound 1, 3′-N-(4-hydroxy-3-iodobenzyl)-13-(R/S)-dihydrodaunorubicin], in data set [2], the “drug remaining encapsulated in liposomes” value is recorded as “more than 90%”. Besides, in data set [6], the “localisation in cells by fluorescence microscopy” value was “bound to the cell nucleus and not located inside the cytoplasm”. Besides, the “n (exclusion parameter)” value in the data set with calf thymus DNA (CT DNA) [4] was 3.4 base pairs. In addition, the “cytotoxic effect (growth curves)” value in the data set with SKBR-3 cells is “Neither of the latter compounds had any significant cytotoxic effect”.

`COc1cccc2c1C(=O)c1c(O)c3c(c(O)c1C2=O)C[C@@](O)(C(C)=O)C[C@@H]3O[C@H]1C[C@@H](NCc2ccc(O)c(I)c2)[C@H](O)C(C)O1` (some centres unmarked) [Compound 2, 3′-N-(4-Hydroxy-3-iodobenzyl)daunorubicin]: the dissolution of drug entry in data set [7] is listed as “did not dissolve completely”. In addition, in the data set with calf thymus DNA (CT DNA) [4], the “n (exclusion parameter)” value is 3.7 base pairs.
